Experimental data reported in patent US9144556B2, “Composition for promoting lipolysis” (LION CORPORATION, priority 2011, dated 2015).

System: rat mesenteric adipocytes
Assay: Rate of promoting lipolysis (glycerol quantification in culture supernatant of rat mesenteric adipocytes)
Type: cell-based
Conditions: for Rate of promoting lipolysis (single preparation) / Rate of promoting lipolysis (combined preparation (+ lactoferrin 10 ppm)) / Rate of promoting lipolysis (combined preparation (+ lactoferrin 30 ppm)): 48 hours, additive free group = 0%; for Rate of promoting lipolysis (single preparation): relative glycerol amount; for Rate of promoting lipolysis of the combination compared with the value obtained by adding the rates of the single preparations (synergy): combined preparation versus sum of single preparations at corresponding concentration
Procedure: Promoting the breakdown of the fat by the composition for promoting the lipolysis of the present invention can be confirmed, for example, by conducting Examples. That is, a sample is added to a precursor adipocyte prepared from rat mesenteric tissue, and glycerol is quantified. A commercially available kit such as F-Kit Glycerol (supplied from Roche, product number: 14820) may be used for the quantification. When the amount of obtained glycerol is larger than the amount of glycerol when the sample was not added, it can be confirmed that the lipolysis was promoted.
Two SD rats (male, 10 weeks of age, Japan SLC, Inc.) were used. The rats were euthanized under anesthesia with ether and anatomized, and mesenteric adipose tissue was removed. The obtained tissue was placed in a sterilized petri dish, immersed in ice-cold saline (Otsuka Normal Saline, supplied from Otsuka Pharmaceutical Co., Ltd.) containing 1% antibiotic (Antibiotic-Antimycotic Stabilized, supplied from Sigma, A5955), and washed to remove blood and hairs, particularly lymphocytes (washed several times with different saline until no hair was visible). The tissue was cut using ophthalmic scissors (cut 25 times per 1 g of the tissue), and dispersed by stirring every several minutes in a PBS solution containing 1 mg/mL of collagenase (Collagenase S-1 derived from Actinomycetes, supplied from Nitta Gelatin Inc.) at 37° C. for 40 minutes. Roughly, the tissue from one rat was treated with 20 mL of the collagenase solution.
The tissue suspension was filtrated through a cell strainer with a pore size of 100 μm (REF352360 supplied from BD Falcon). Subsequently, a viscosity of the suspension was reduced by adding 20 mL of DMEM (Dulbecco's Modified Eagle's Medium-high glucose, D5796 supplied from Sigma), and then the suspension was centrifuged at 800 rpm for 10 minutes. An oil layer in an upper layer was removed using an aspirator, and then, the resulting suspension was resuspended and filtrated through a cell strainer with a pore size of 70 μm (REF352350 supplied from BD Falcon). After centrifuging at 800 rpm for 15 minutes, it was confirmed that there was no suspended cell in a supernatant, the presence of a pellet was confirmed, and then the supernatant was removed. The pellet was suspended in 5 mL of DMEM (serum free), the suspension was centrifuged at 800 rpm for 15 minutes, and then the supernatant was removed.
The resulting pellet was gently suspended in 5 mL of a medium for visceral adipocyte differentiation (Visceral Adipocyte Culture Medium, 250 mL, code: VACMR supplied from Primary Cell Co., Ltd.). The suspension was diluted to 10 times, and the number of cells was counted and was 1.015×10^7 cells/mL. 2.54×10^7 cells could be recovered from one rat. The cells suspended in the medium were placed so as to be at 6×10^6 cells/24-wells and 500 μL/well, and their cultivation was started. On the following day, 500 μL of the medium was added, and subsequently the medium was changed every third day. […]. On the 6th day after the start of the cultivation, the medium was changed to a medium containing each sample. A culture supernatant was collected 48 hours after adding the sample, and the cultivation was terminated. It was visually confirmed that there was no cytotoxicity in all of the cultivations.
A concentration of lactoferrin was adjusted to 30 ppm or 10 ppm, and lactoferrin at each concentration was used as the sample for evaluating the effect of lactoferrin alone (Comparative Experimental example 1). Each ingredient other than lactoferrin was used as the sample for evaluating the effect of a single preparation alone as follows. Lactoferrin and each ingredient other than lactoferrin were adjusted to the following concentrations and mixed to use as the sample for evaluating the effect of a combined preparation (Experimental Examples 1 to 9 and Comparative Experimental Examples 2 to 4). […]

[1] = ingredient 10 ppm + lactoferrin 10 ppm
[2] = ingredient 10 ppm + lactoferrin 30 ppm
[3] = ingredient 30 ppm + lactoferrin 10 ppm
[4] = ingredient 30 ppm + lactoferrin 30 ppm

Row | Compound | Rate of promoting lipolysis (single preparation) (ingredient 10 ppm alone) | Rate of promoting lipolysis (single preparation) (ingredient 30 ppm alone) | Rate of promoting lipolysis of the combination compared with the value obtained by adding the rates of the single preparations (synergy) | Rate of promoting lipolysis (combined preparation (+ lactoferrin 10 ppm)) [1] | Rate of promoting lipolysis (combined preparation (+ lactoferrin 30 ppm)) [2] | Rate of promoting lipolysis (combined preparation (+ lactoferrin 10 ppm)) [3] | Rate of promoting lipolysis (combined preparation (+ lactoferrin 30 ppm)) [4] | Rate of promoting lipolysis (combined preparation (+ lactoferrin 10 ppm)) (ingredient 10 ppm + lactoferrin 10 ppm, listed as raspberry ketone) | Rate of promoting lipolysis (single preparation) (ingredient 10 ppm alone, listed as raspberry ketone)
1 | Lactoferrin | 12.1% | 21.3% | – | – | – | – | – | – | –
2 | O=C(/C=C/c1ccc(O)c(O)c1)O[C@@H]1C[C@](O)(C(=O)O)C[C@@H](O)[C@H]1O [Chlorogenic acid, chlorogenic acid] | 3% | 5% | No prominently synergistic effect | 12% | 20% | 14% | 22% | – | –
3 | CC(=O)CCc1ccc(O)cc1 [Raspberry ketone, 4-(4-hydroxyphenyl)-2-butanone] | −2% | 10% | – | 22% | 57% | 34% | 70% | more excellent effect of promoting the lipolysis than in the case of lactoferrin 10 ppm alone | rather inhibited the lipolysis
4 | O=C(O[C@@H]1Cc2c(O)cc(O)cc2O[C@@H]1c1cc(O)c(O)c(O)c1)c1cc(O)c(O)c(O)c1 [Epigallocatechin gallate, epigallocatechin gallate] | −6% | 3% | No prominently synergistic effect | 11% | 21% | 13% | 24% | – | –
